Data as given in patent US12016355B2, “Stevia composition” (PURECIRCLE SDN BHD, priority 2011, dated 2024).
Like-named read-outs stand apart in the source and are kept apart here.

Columns and labels:
[1] = Sweetness factor (SF) determination by trained panel in water; conditions: in water, 5% SE
Method: The sweetness factors for different sweetener from all major groups were measured by tasting several concentrations of each sweetener in water by trained panel. From the sensory test at a, the concentration (%) that corresponds to the 5% sucrose equivalent (SE) sweetness were estimated and listed in Table 2. The sweetness equivalent (SE) of high intensity sweeteners (HIS) varies according to the target sugar equivalent sweetness levels, that are tested as shown in Table 3.

[2] = as usually found, literature; cited from earlier work
[3] = type: physicochemical
Method: Hereinafter, unless specified otherwise the solubility of material is determined in reverse osmosis (RO) water at room temperature. Where the solubility is expressed as “%” it to be understood as number of grams of material soluble in 100 grams of solvent.
The temperature was increased at 1° C. per minute to 121° C. The mixture was maintained at 121° C. for 1 hour and then the temperature was decreased to 80° C., at 1° C. per minute, and the obtained solution was spray dried using YC-015 laboratory spray drier (Shanghai Pilotech Instrument & Equipment Co. Ltd., China) operating at 175° C. inlet and 100° C. outlet temperature. Solution was maintained at 80° C. to prevent premature crystallization.
Solubility were evaluated for Reb A, Reb B, mechanical blends of Reb A and Reb B powders of different ratios, and mixtures of Reb A and Reb B prepared according to process described in EXAMPLE 1.

[4] = room temperature; reported values; cited from earlier work
[5] = Sugar equivalent sweetness of sweetener/Reb B combinations in plain water, trained panel; conditions: plain water
Method: In one embodiment, Reb B was combined (at 50, 150 and 300 ppm) with several sweeteners listed in Table 2 to make solutions in plain water. Some of the sweeteners were tested at two different concentrations to obtain around 2% sugar equivalent sweetness without any Reb B. A trained panel conducted sensory tests to determine the effect of the addition of different amounts of Reb B to each sweetener on overall sweetness quality and intensity as shown in Table 4.

Compound: OC[C@H]1O[C@@](CO)(O[C@H]2O[C@H](CO)[C@@H](O)[C@H](O)[C@H]2O)[C@@H](O)[C@@H]1O [Sugar]
- Calculated SF (sweetness factor) [1]: 1
- Usage Level, % (concentration corresponding to 5% sucrose equivalent sweetness) [1]: 5%

Compound: C=C1C[C@@]23CC[C@H]4[C@@](C)(CCC[C@@]4(C)C(=O)O[C@@H]4O[C@H](CO)[C@@H](O)[C@H](O)[C@H]4O)[C@@H]2CC[C@]1(O[C@@H]1O[C@H](CO)[C@@H](O)[C@H](O)[C@H]1O[C@@H]1O[C@@H](C)[C@H](O)[C@@H](O)[C@H]1O)C3 [Dulcoside A]
- times sweeter than sucrose [2]: 30 times

Compound: Rebaudioside D [Reb D]
- water solubility [3]: 0.03%
- Calculated SF (sweetness factor) [1]: 291
- Usage Level, % (concentration corresponding to 5% sucrose equivalent sweetness) [1]: 0.0172%
- water solubility [4]: 0.01-0.05%

Compound: OC[C@@H](O)[C@@H](O[C@H]1O[C@H](CO)[C@@H](O)[C@H](O)[C@H]1O)[C@H](O)[C@@H](O)CO [Maltitol]
- Calculated SF (sweetness factor) [1]: 0.77
- Usage Level, % (concentration corresponding to 5% sucrose equivalent sweetness) [1]: 6.44%
- Sugar equivalent sweetness (SE) of Sweetener/Reb B combination ([5]; 0 ppm Reb B): 5%
- Sugar equivalent sweetness (SE) of Sweetener/Reb B combination ([5]; 50 ppm Reb B): 6%
- Sugar equivalent sweetness (SE) of Sweetener/Reb B combination ([5]; 150 ppm Reb B): 9%
- Sugar equivalent sweetness (SE) of Sweetener/Reb B combination ([5]; 300 ppm Reb B): 12%

Compound: OC[C@@H](O)[C@@H](O)CO [Erythritol]
- Calculated SF (sweetness factor) [1]: 0.67
- Usage Level, % (concentration corresponding to 5% sucrose equivalent sweetness) [1]: 7.49%
- Sugar equivalent sweetness (SE) of Sweetener/Reb B combination ([5]; 0 ppm Reb B, listed as Erythritol (3.5%)): 1-1.5%
- Sugar equivalent sweetness (SE) of Sweetener/Reb B combination ([5]; 0 ppm Reb B, listed as Erythritol (5.0%)): 3%
- Sugar equivalent sweetness (SE) of Sweetener/Reb B combination ([5]; 50 ppm Reb B, listed as Erythritol (3.5%)): 3%
- Sugar equivalent sweetness (SE) of Sweetener/Reb B combination ([5]; 50 ppm Reb B, listed as Erythritol (5.0%)): 4%
- Sugar equivalent sweetness (SE) of Sweetener/Reb B combination ([5]; 150 ppm Reb B, listed as Erythritol (3.5%)): 5.5-6%
- Sugar equivalent sweetness (SE) of Sweetener/Reb B combination ([5]; 150 ppm Reb B, listed as Erythritol (5.0%)): 8%
- Sugar equivalent sweetness (SE) of Sweetener/Reb B combination ([5]; 300 ppm Reb B, listed as Erythritol (3.5%)): 9%
- Sugar equivalent sweetness (SE) of Sweetener/Reb B combination ([5]; 300 ppm Reb B, listed as Erythritol (5.0%)): 9.5%

Compound: OC[C@H]1O[C@H](O[C@]2(CCl)O[C@H](CCl)[C@@H](O)[C@@H]2O)[C@H](O)[C@@H](O)[C@H]1Cl [Sucralose]
- Calculated SF (sweetness factor) [1]: 602
- Usage Level, % (concentration corresponding to 5% sucrose equivalent sweetness) [1]: 0.0083%
- Sugar equivalent sweetness (SE) of Sweetener/Reb B combination ([5]; 0 ppm Reb B, listed as Sucralose 83 ppm): 5%
- Sugar equivalent sweetness (SE) of Sweetener/Reb B combination ([5]; 0 ppm Reb B, listed as Sucralose (40 ppm)): 2-2.5%
- Sugar equivalent sweetness (SE) of Sweetener/Reb B combination ([5]; 50 ppm Reb B, listed as Sucralose 83 ppm): 7%
- Sugar equivalent sweetness (SE) of Sweetener/Reb B combination ([5]; 50 ppm Reb B, listed as Sucralose (40 ppm)): 5%
- Sugar equivalent sweetness (SE) of Sweetener/Reb B combination ([5]; 150 ppm Reb B, listed as Sucralose 83 ppm): 11%
- Sugar equivalent sweetness (SE) of Sweetener/Reb B combination ([5]; 150 ppm Reb B, listed as Sucralose (40 ppm)): 7.5-8%
- Sugar equivalent sweetness (SE) of Sweetener/Reb B combination ([5]; 300 ppm Reb B, listed as Sucralose 83 ppm): 14%
- Sugar equivalent sweetness (SE) of Sweetener/Reb B combination ([5]; 300 ppm Reb B, listed as Sucralose (40 ppm)): 11%

Compound: C[C@H](CC[C@@H](O[C@@H]1O[C@H](CO[C@@H]2O[C@H](CO)[C@@H](O)[C@H](O)[C@H]2O)[C@@H](O)[C@H](O)[C@H]1O[C@@H]1O[C@H](CO)[C@@H](O)[C@H](O)[C@H]1O)C(C)(C)O)[C@H]1CC[C@@]2(C)[C@@H]3CC=C4[C@@H](CC[C@H](O[C@@H]5O[C@H](CO[C@@H]6O[C@H](CO)[C@@H](O)[C@H](O)[C@H]6O)[C@@H](O)[C@H](O)[C@H]5O)C4(C)C)[C@]3(C)[C@H](O)C[C@]12C [Mogroside V (70%), Mogroside V]
- Calculated SF (sweetness factor) [1]: 236
- Usage Level, % (concentration corresponding to 5% sucrose equivalent sweetness) [1]: 0.0212%
- Sugar equivalent sweetness (SE) of Sweetener/Reb B combination ([5]; 0 ppm Reb B, listed as Mogroside V (100 ppm)): 2.5%
- Sugar equivalent sweetness (SE) of Sweetener/Reb B combination ([5]; 0 ppm Reb B, listed as Mogroside V (212 ppm)): 5.5-6%
- Sugar equivalent sweetness (SE) of Sweetener/Reb B combination ([5]; 50 ppm Reb B, listed as Mogroside V (100 ppm)): 4%
- Sugar equivalent sweetness (SE) of Sweetener/Reb B combination ([5]; 50 ppm Reb B, listed as Mogroside V (212 ppm)): 7%
- Sugar equivalent sweetness (SE) of Sweetener/Reb B combination ([5]; 150 ppm Reb B, listed as Mogroside V (100 ppm)): 5.5%
- Sugar equivalent sweetness (SE) of Sweetener/Reb B combination ([5]; 150 ppm Reb B, listed as Mogroside V (212 ppm)): 9%
- Sugar equivalent sweetness (SE) of Sweetener/Reb B combination ([5]; 300 ppm Reb B, listed as Mogroside V (100 ppm)): 8-8.5%
- Sugar equivalent sweetness (SE) of Sweetener/Reb B combination ([5]; 300 ppm Reb B, listed as Mogroside V (212 ppm)): 10-10.5%

Compound: C=C1C[C@@]23CC[C@H]4[C@@](C)(CCC[C@@]4(C)C(=O)O[C@@H]4O[C@H](CO)[C@@H](O)[C@H](O)[C@H]4O)[C@@H]2CC[C@]1(O[C@@H]1O[C@H](CO)[C@@H](O)[C@H](O[C@@H]2O[C@H](CO)[C@@H](O)[C@H](O)[C@H]2O)[C@H]1O[C@@H]1O[C@@H](C)[C@H](O)[C@@H](O)[C@H]1O)C3 [Rebaudioside C]
- times sweeter than sucrose [2]: 40-60 times
